Reference: patent publication US20080262014A1, “Use of Camptothecin Derivatives for the Treatment of Proliferative Diseases in a Fixed Dosing Regimen” (priority 2004, published 2008)
“Also recorded” adds a separate entry of the source.

Assays:
[1] = Clinical pharmacokinetics (disposition) of oral gimatecan in phase I patients with refractory malignancies; assay type: in vivo
Procedure: The disposition of oral gimatecan is evaluated in patients with refractory malignancies administered on a daily schedule for 5, 10, or 15 consecutive days or a weekly schedule for 3 weeks of a 28 day cycle. The disposition of gimatecan using these four schedules are depicted in FIGS. 3 (a-d). Clinical pharmacokinetics is assessed on the first and last days of the first cycle of daily dosing. […] However, patients were dosed based on their body surface area. Patients who responded to gimatecan had taken 0.45 mg, 0.9 mg, 1.1 mg or 1.6 mg which made it difficult to pick an effective dose.

[2] = clinical; design: species or system patients; details: human, in vivo
Excerpt: The optimal dose and schedule of gimatecan stems mainly from the putative therapeutic window identified from the PK/PD analysis of completed phase I data. The target range of cumulative gimatecan cycle exposure (AUC 5,000-10,000 (ng)(hr)/mL) was selected because it produces partial responses and yet is below the exposure where grade III/IV neutropenia and thrombocytopenia adverse events became evident (FIG. 1). […] This may explain why toxicity could not be differentiated among the three schedules; all three schedules exceeded the putative effective daily exposure and were in a potentially toxic range. […] The flat dose is dosed every third day, or once every three days, or every 72 hours, or at one half-life to avoid potential accumulation. The starting doses are chosen to target a systemic exposure of 200-400 (ng)(hr)/mL (the “therapeutic window”) once every three days.

## CC[C@@]1(O)C(=O)OCc2c1cc1n(c2=O)Cc2c-1nc1ccccc1c2/C=N/OC(C)(C)C [gimatecan, 7-(t-butoxy)imino methyl camptothecin]
[1]; 78 patients receiving four schedules
  body surface area as predictor of gimatecan clearance: lack of correlation; also recorded: not a good predictor; also recorded: not predicted by body surface area
[1]; human, in vivo, oral, estimated from 10 patients receiving the weekly schedule, read-out: terminal harmonic mean half-life (converted)
  half-life: 86 h
[1]; oral, four schedules
  apparent oral clearance, dependence on dose: independent of dose
[1]; weekly and daily schedule
  drug accumulation: Drug accumulation is observed
[2]
  AUC at 1 day: 200 to 400 ng·h/mL
[2]; iv
  AUC at 1 cycle: 5000 to 10000 ng·h/mL
